This is an account of results in US20240358681A1, “METHODS OF USE OF PPAR AGONIST COMPOUNDS AND PHARMACEUTICAL COMPOSITIONS THEREOF” (Mitobridge, Inc., priority 2021, published 2024).

One data set has as its target T1, PPARδ (Mus musculus, UniProt P35396).
T1 sequence (P35396 1-440): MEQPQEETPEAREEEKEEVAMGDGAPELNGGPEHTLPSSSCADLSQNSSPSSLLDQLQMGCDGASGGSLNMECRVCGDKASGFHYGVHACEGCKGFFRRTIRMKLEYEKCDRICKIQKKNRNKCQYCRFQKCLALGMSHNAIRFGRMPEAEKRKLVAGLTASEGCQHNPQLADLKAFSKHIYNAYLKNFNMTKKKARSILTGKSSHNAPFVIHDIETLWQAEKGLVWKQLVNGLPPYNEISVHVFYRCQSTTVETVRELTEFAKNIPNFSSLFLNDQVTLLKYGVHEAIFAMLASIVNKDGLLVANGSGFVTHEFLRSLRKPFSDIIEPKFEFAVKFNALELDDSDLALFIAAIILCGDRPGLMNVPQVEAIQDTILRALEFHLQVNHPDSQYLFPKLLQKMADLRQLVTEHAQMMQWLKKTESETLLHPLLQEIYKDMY
Description: Mouse EC50 (PPARδ agonist).

The subject of the next data set is PMM patient fibroblasts. Description: Fatty acid OXPHOS in PMM patient fibroblasts (FIG. 4B, all lines). Type of data set: cell-based, human. Particulars: 3, 9 and 30 nM. As to the method: LHON/Leigh cells were treated with DMSO or Compound (I) in complete media supplemented with 0.5 mM carnitine for 24 hours prior to assaying. Treated cells were trypsinized, collected in Krebs-Henseleit Buffer (KHB) and pelleted.
Palmitate-mediated OXPHOS was measured using an Oxygraph-2k (Oroboros Instruments). Cells (1×10^6) in KHB were loaded into each chamber with 250 μM BSA or BSA-conjugated palmitate. KHB was added to reach a final volume of 2 mL. Respiration was measured at 37° C. as previously described in Zhang, Z., et al., Primary respiratory chain disease causes tissue-specific dysregulation of the global transcriptome and nutrient-sensing signaling network. (1932-6203). Briefly, BSA and BSA-conjugated palmitate treated cells were analyzed simultaneously in two separate chambers. […]
Data were analyzed using DatLab6 software. […] Non-mitochondrial respiration was measured after addition of Rotenone and Antimycin A sequentially (ROX, residual oxygen consumption, background) and subtracted from maximal respiration values. […]
FAO was measured using a Seahorse XF96 (Seahorse Biosciences). […]

Data set [1] relates to aged Diet-Induced Obese (DIO) C57BL/6NTac mice. Description: Forced exhaustion running, activity and body composition in aged DIO mice. Type of data set: in vivo, mouse. The following applies: 30 mg/kg. How it is done: All animal studies were performed in accordance with Charles River Laboratories animal welfare protocols. Male Diet-Induced Obese (DIO) C57BL/6NTac mice 28 weeks of age were fed a high fat diet. 20 mice were randomized based on bodyweight into two cohorts of 10 mice each. Five mice were assigned to each treatment group in each cohort (i) vehicle or (ii) Compound (I) at 30 mg/kg via (n=10 total animals per treatment). Groups were dosed orally by gavage, once daily for 45 days at the start of the dark cycle. Mice were acclimatized to the treadmill room for one hour on days of training or endurance runs. After an initial 5 min exploration period the treadmill belt moved at 5 m/min for 10 min with the motivation grid intensity set to 0.46 mA. Mice required a few visits to the grid to learn to walk/run on the moving belt and avoid the electric grid shock. After two acclimatization periods the mice learned to avoid the electric grid and stay on the moving belt, with fewer visits to the electric grid. The maximum speed for the endurance run was capped at 16.5 m/min based on speed acclimation runs, which represents the speed at which 25% of animals are running in the top ⅔ of the treadmill at a 5° slope. The mice were considered exhausted if they stayed on the electric grid with no limbs on the treadmill belt for 10 seconds.
Endurance was calculated as a Fatigue Index; this accounts for distance traveled, time on the treadmill, the number of breaks in running, and the length of those breaks. The cumulative number of stimulations for individual animals was plotted over time and the area under the curve (AUC) was calculated. AUC was divided by the distance individual animals completed during the course of the fatigue run to obtain the Fatigue Index. Voluntary activity is defined as the total number of X and Y axis laser beam breaks and rearing is defined as the total number of Z axis breaks per treatment group.

[2] abbreviates: 5 weeks, vs vehicle, FIG. 6D-6E.

Entries after “also recorded” stand apart in the source; their conditions may differ.

In general, EC50 refers to the concentration at which the effect is half-maximal. A high value points to a need for much substance. At PPARδ, `Cc1cnc(-c2ccc(C(F)(F)F)cc2)n1Cc1ccccc1OCCC[C@@H](C)CC(=O)O` [Compound (I), (R)-3-Methyl-6-(2-((5-methyl-2-(4-(trifluoromethyl)phenyl)-1H-imidazol-1-yl)methyl)-phenoxy)hexanoic acid] showed an EC50 of 14 nM. Moreover, the “fatty acid OXPHOS” value with PMM patient fibroblasts is “increased”. In addition, in data set [1] (5 weeks, FIG. 5F), the “rate of falls in the motivational grid” value is “decrease”. The run distance result in data set [1] (5 weeks, FIG. 5H) was “no change”. Also, in data set [1] (5 weeks, vs vehicle, FIG. 5I), the “Fatigue Index” value is “less fatigued”. In addition, in data set [1] (setting [2]), the rearing result is reported as “trend towards increased” and the voluntary activity result is given as “trend towards increased; also recorded: No statistically significant differences”. In data set [1] (during the study, FIG. 6B), the body weight entry is “did not alter”. For the same molecule, the body composition result in data set [1] (during the study, FIG. 6C) is on record as “did not alter; also recorded: No statistically significant differences”.
